# “And” between values parts separate entries of the source, which are not always exact repeats. Equal values may be shown once.
# Assays:
# [1] = system: matrix metalloproteinase-1 (MMP-1) release; experiment: MMP-1 release by aged fibroblasts (ELISA), anti-aging; format: cell-based, human; conditions: 10^−7M
# Description: […] The matrix metalloproteinase-1 (MMP-1) assay using a specific ELISA kit was used to evaluate anti-aging properties. The migration/proliferation of NHEK using kinetic image analysis of the wound recovery was used to evaluate cell renewal properties. The IL-8 release on NHEK stimulated by PMA using a specific ELISA kit was used to evaluate anti-inflammatory properties.
# [2] = DPPH free radical scavenging (antioxidant) assay; format: biochemical; conditions: positive control, 0.3 mg/mL; ± standard error
# Method: Two controls were used in the DPPH assay; a negative control containing all reagents except for the test extract, and a positive control using a final concentration of 0.33 mg/mL L-ascorbic acid as antioxidant instead of test extract. Radical scavenging activity was calculated as follows: Scavenging activity (%)=[(Acontrol−Atest)/[…]]*100 Where Acontrol is the negative control (without test extract), and Atest is the absorbance with the botanical extract. All analysis were carried out in triplicate.
# [3] = system: Hyaluronic acid; experiment: Hyaluronic acid synthesis; format: cell-based; conditions: 10^−7M
# [4] = system: IL-8 release of NHEK; experiment: IL-8 release of NHEK stimulated by PMA (ELISA), anti-inflammatory; format: cell-based, human; conditions: 10^−9M
# Description: The matrix metalloproteinase-1 (MMP-1) assay using a specific ELISA kit was used to evaluate anti-aging properties. The migration/proliferation of NHEK using kinetic image analysis of the wound recovery was used to evaluate cell renewal properties. The IL-8 release on NHEK stimulated by PMA using a specific ELISA kit was used to evaluate anti-inflammatory properties.
# [5] = Scavenging of reactive oxygen species; conditions: control reference, concentration not given
compound,measurement,setting,value
C[C@@H]1C[C@H]2[C@@H]3CCC4=CC(=O)C=C[C@]4(C)[C@@]3(F)[C@@H](O)C[C@]2(C)[C@@]1(O)C(=O)CO [Dexamethasone],MMP-1 % Control (P17-F),[1],58%
same,inhibition at 0.1 µM,"[1]; Homo sapiens, Fibroblast",42%
same,MMP-1 (ng/ml) dilution factor adjusted,"[1]; P17-F aged fibroblasts, single replicate",8.7 ng/mL and 8.2 ng/mL and 8.5 ng/mL
same,MMP-1 Mean,[1]; P17-F,8.5 ng/mL
O=C1O[C@H]([C@@H](O)CO)C(O)=C1O [L-ascorbic acid],DPPH scavenging activity,[2],95.79±0.17%
CC1=C(/C=C/C(C)=C/C=C/C(C)=C/C(=O)O)C(C)(C)CCC1 [Retinoic acid],Hyaluronic acid % Control,[3],241%
same,Hyaluronic acid % Stimulation,[3],141%
same,Hyaluronic acid Mean,[3],655.7 ng/mL
same,Hyaluronic acid (ng/ml) dilution factor adjusted,[3]; single replicate,677.2 ng/mL and 632.1 ng/mL and 657.9 ng/mL
CN[C@@H]1C[C@H]2O[C@@](C)([C@@H]1OC)n1c3ccccc3c3c4c(c5c6ccccc6n2c5c31)C(=O)NC4 [Staurosporine],IL-8 % Stimulated control,[4],54%
same,IL-8 Mean,[4]; PMA 0.1 μg/ml,1685 pg/mL
same,IL-8 (pg/ml) dilution factor adjusted,"[4]; PMA 0.1 μg/ml, non-diluted sample, single replicate",1579 pg/mL and 1809 pg/mL and 1668 pg/mL
Vitamin-E,ROS scavenged,[5],92%

# From patent US11077159B2, “Compositions from halophyte plants and methods of use thereof” (KHALIFA UNIVERSITY OF SCIENCE AND TECHNOLOGY, priority 2017, dated 2021)
